smiles,measurement,setting,value
OCC1(O)OC[C@@H](O)[C@@H](O)[C@H]1O (some centres undefined),solubility (mole fraction),"in 2-butanone, 283.15 K",0.000516
same,solubility (mole fraction),"in 2-butanone, 288.15 K",0.000587
same,solubility (mole fraction),"in 2-butanone, 293.15 K",0.000946
same,solubility (mole fraction),"in 2-butanone, 298.15 K",0.00144
same,solubility (mole fraction),"in 2-butanone, 303.15 K",0.00198
same,solubility (mole fraction),"in 2-butanone, 308.15 K",0.00264
same,solubility (mole fraction),"in 2-butanone, 313.15 K",0.0033
same,solubility (mole fraction),"in 2-butanone, 318.15 K",0.00464
same,solubility (mole fraction),"in 2-butanone, 323.15 K",0.00552
same,solubility (mole fraction),"in acetone, 283.15 K",0.000606
same,solubility (mole fraction),"in acetone, 288.15 K",0.000752
same,solubility (mole fraction),"in acetone, 293.15 K",0.00104
same,solubility (mole fraction),"in acetone, 298.15 K",0.00158
same,solubility (mole fraction),"in acetone, 303.15 K",0.00219
same,solubility (mole fraction),"in acetone, 308.15 K",0.00299
same,solubility (mole fraction),"in acetone, 313.15 K",0.00376
same,solubility (mole fraction),"in acetone, 318.15 K",0.0049
same,solubility (mole fraction),"in acetonitrile, 283.15 K",0.000226
same,solubility (mole fraction),"in acetonitrile, 288.15 K",0.000283
same,solubility (mole fraction),"in acetonitrile, 293.15 K",0.000367
same,solubility (mole fraction),"in acetonitrile, 298.15 K",0.00047
same,solubility (mole fraction),"in acetonitrile, 303.15 K",0.000627
same,solubility (mole fraction),"in acetonitrile, 308.15 K",0.000861
same,solubility (mole fraction),"in acetonitrile, 313.15 K",0.00109
same,solubility (mole fraction),"in acetonitrile, 318.15 K",0.00139
same,solubility (mole fraction),"in acetonitrile, 323.15 K",0.00176
same,solubility (mole fraction),"in ethanol, 283.15 K",0.00369
same,solubility (mole fraction),"in ethanol, 288.15 K",0.00446
same,solubility (mole fraction),"in ethanol, 293.15 K",0.00588
same,solubility (mole fraction),"in ethanol, 298.15 K",0.00746
same,solubility (mole fraction),"in ethanol, 303.15 K",0.00899
same,solubility (mole fraction),"in ethanol, 308.15 K",0.0116
same,solubility (mole fraction),"in ethanol, 313.15 K",0.0147
same,solubility (mole fraction),"in ethanol, 318.15 K",0.018
same,solubility (mole fraction),"in ethanol, 323.15 K",0.0222
same,solubility (mole fraction),"in ethyl acetate, 283.15 K",0.00077
same,solubility (mole fraction),"in ethyl acetate, 288.15 K",0.000993
same,solubility (mole fraction),"in ethyl acetate, 293.15 K",0.00128
same,solubility (mole fraction),"in ethyl acetate, 298.15 K",0.00173
same,solubility (mole fraction),"in ethyl acetate, 303.15 K",0.00217
same,solubility (mole fraction),"in ethyl acetate, 308.15 K",0.00257
same,solubility (mole fraction),"in ethyl acetate, 313.15 K",0.00327
same,solubility (mole fraction),"in ethyl acetate, 318.15 K",0.00379
same,solubility (mole fraction),"in ethyl acetate, 323.15 K",0.00449
same,solubility (mole fraction),"in ethyl formate, 283.15 K",0.000243
same,solubility (mole fraction),"in ethyl formate, 288.15 K",0.000356
same,solubility (mole fraction),"in ethyl formate, 293.15 K",0.000493
same,solubility (mole fraction),"in ethyl formate, 298.15 K",0.000697
same,solubility (mole fraction),"in ethyl formate, 303.15 K",0.00109
same,solubility (mole fraction),"in ethyl formate, 308.15 K",0.00151
same,solubility (mole fraction),"in ethyl formate, 313.15 K",0.00193
same,solubility (mole fraction),"in ethyl formate, 318.15 K",0.00275
same,solubility (mole fraction),"in ethyl formate, 323.15 K",0.00346
same,solubility (mole fraction),"in isopropanol, 283.15 K",0.00147
same,solubility (mole fraction),"in isopropanol, 288.15 K",0.00193
same,solubility (mole fraction),"in isopropanol, 293.15 K",0.00254
same,solubility (mole fraction),"in isopropanol, 298.15 K",0.00368
same,solubility (mole fraction),"in isopropanol, 303.15 K",0.00507
same,solubility (mole fraction),"in isopropanol, 308.15 K",0.00673
same,solubility (mole fraction),"in isopropanol, 313.15 K",0.00893
same,solubility (mole fraction),"in isopropanol, 318.15 K",0.0112
same,solubility (mole fraction),"in isopropanol, 323.15 K",0.0143
same,solubility (mole fraction),"in methanol, 283.15 K",0.0162
same,solubility (mole fraction),"in methanol, 288.15 K",0.0178
same,solubility (mole fraction),"in methanol, 293.15 K",0.0212
same,solubility (mole fraction),"in methanol, 298.15 K",0.0273
same,solubility (mole fraction),"in methanol, 303.15 K",0.0356
same,solubility (mole fraction),"in methanol, 308.15 K",0.0512
same,solubility (mole fraction),"in methanol, 313.15 K",0.0705
same,solubility (mole fraction),"in methanol, 318.15 K",0.0895
same,solubility (mole fraction),"in methanol, 323.15 K",0.116
same,solubility (mole fraction),"in methyl acetate, 283.15 K",0.000227
same,solubility (mole fraction),"in methyl acetate, 288.15 K",0.000298
same,solubility (mole fraction),"in methyl acetate, 293.15 K",0.000389
same,solubility (mole fraction),"in methyl acetate, 298.15 K",0.000619
same,solubility (mole fraction),"in methyl acetate, 303.15 K",0.000851
same,solubility (mole fraction),"in methyl acetate, 308.15 K",0.00105
same,solubility (mole fraction),"in methyl acetate, 313.15 K",0.00139
same,solubility (mole fraction),"in methyl acetate, 318.15 K",0.00187
same,solubility (mole fraction),"in methyl acetate, 323.15 K",0.00231
same,solubility (mole fraction),"in n-butanol, 283.15 K",0.00111
same,solubility (mole fraction),"in n-butanol, 288.15 K",0.00125
same,solubility (mole fraction),"in n-butanol, 293.15 K",0.0018
same,solubility (mole fraction),"in n-butanol, 298.15 K",0.0024
same,solubility (mole fraction),"in n-butanol, 303.15 K",0.00329
same,solubility (mole fraction),"in n-butanol, 308.15 K",0.00456
same,solubility (mole fraction),"in n-butanol, 313.15 K",0.00579
same,solubility (mole fraction),"in n-butanol, 318.15 K",0.00747
same,solubility (mole fraction),"in n-butanol, 323.15 K",0.00952
same,solubility (mole fraction),"in n-butyl acetate, 283.15 K",0.000243
same,solubility (mole fraction),"in n-butyl acetate, 288.15 K",0.000359
same,solubility (mole fraction),"in n-butyl acetate, 293.15 K",0.000443
same,solubility (mole fraction),"in n-butyl acetate, 298.15 K",0.000593
same,solubility (mole fraction),"in n-butyl acetate, 303.15 K",0.000796
same,solubility (mole fraction),"in n-butyl acetate, 308.15 K",0.001
same,solubility (mole fraction),"in n-butyl acetate, 313.15 K",0.00131
same,solubility (mole fraction),"in n-butyl acetate, 318.15 K",0.00165
same,solubility (mole fraction),"in n-butyl acetate, 323.15 K",0.002
same,solubility (mole fraction),"in n-hexanol, 283.15 K",0.000659
same,solubility (mole fraction),"in n-hexanol, 288.15 K",0.000835
same,solubility (mole fraction),"in n-hexanol, 293.15 K",0.000961
same,solubility (mole fraction),"in n-hexanol, 298.15 K",0.00143
same,solubility (mole fraction),"in n-hexanol, 303.15 K",0.00216
same,solubility (mole fraction),"in n-hexanol, 308.15 K",0.00301
same,solubility (mole fraction),"in n-hexanol, 313.15 K",0.004
same,solubility (mole fraction),"in n-hexanol, 318.15 K",0.00509
same,solubility (mole fraction),"in n-hexanol, 323.15 K",0.00652
same,solubility (mole fraction),"in n-pentanol, 283.15 K",0.00133
same,solubility (mole fraction),"in n-pentanol, 288.15 K",0.00134
same,solubility (mole fraction),"in n-pentanol, 293.15 K",0.0017
same,solubility (mole fraction),"in n-pentanol, 298.15 K",0.00202
same,solubility (mole fraction),"in n-pentanol, 303.15 K",0.00269
same,solubility (mole fraction),"in n-pentanol, 308.15 K",0.00356
same,solubility (mole fraction),"in n-pentanol, 313.15 K",0.00448
same,solubility (mole fraction),"in n-pentanol, 318.15 K",0.00561
same,solubility (mole fraction),"in n-pentanol, 323.15 K",0.00721
same,solubility (mole fraction),"in n-propanol, 283.15 K",0.0015
same,solubility (mole fraction),"in n-propanol, 288.15 K",0.00191
same,solubility (mole fraction),"in n-propanol, 293.15 K",0.00234
same,solubility (mole fraction),"in n-propanol, 298.15 K",0.00335
same,solubility (mole fraction),"in n-propanol, 303.15 K",0.00446
same,solubility (mole fraction),"in n-propanol, 308.15 K",0.00567
same,solubility (mole fraction),"in n-propanol, 313.15 K",0.00751
same,solubility (mole fraction),"in n-propanol, 318.15 K",0.00956
same,solubility (mole fraction),"in n-propanol, 323.15 K",0.0121
same,solubility (mole fraction),"in sec-butanol, 283.15 K",0.001
same,solubility (mole fraction),"in sec-butanol, 288.15 K",0.00178
same,solubility (mole fraction),"in sec-butanol, 293.15 K",0.00238
same,solubility (mole fraction),"in sec-butanol, 298.15 K",0.00324
same,solubility (mole fraction),"in sec-butanol, 303.15 K",0.0045
same,solubility (mole fraction),"in sec-butanol, 308.15 K",0.00617
same,solubility (mole fraction),"in sec-butanol, 313.15 K",0.0079
same,solubility (mole fraction),"in sec-butanol, 318.15 K",0.0105
same,solubility (mole fraction),"in sec-butanol, 323.15 K",0.0135

# — BigSolDB 2.1
